In this test the target is T1, hPD-1/hPD-L1 (Homo sapiens, UniProt Q9NZQ7).
T1 construct: purchased CISBIO
Description: PD-1/PD-L1 binding assay kit (CISBIO), HTRF assay of PD-1/PD-L1 protein-protein interaction. As to conditions: for inhibitory activity of PD-1/PD-L1 protein-protein interaction compared with BMS-202: HTRF, comparison with BMS-202. As to the method: Experimental objective: the activity of the compounds of formula (I) to inhibit the PD-1/PD-L1 interaction was tested by using a PD-1/PD-L1 binding assay kit (CISBIO).
Experimental principle: HTRF (Homogeneous Time-Resolved Fluorescence) is a technique used to detect substances to be tested in pure liquid phase systems. It primarily utilizes energy transfer of two fluorescent groups, which are divided into an energy donor europium (Eu^+) and an energy acceptor. When the donor is externally excited (e.g., a flash lamp or laser), the energy can be resonantly transferred to the acceptor if the donor is close enough to the acceptor, and the acceptor is excited at a specific wavelength. By using the HTRF technology, the assay enables simple and rapid characterization of compounds and antibody blockers in a high-throughput format. By using anti-Tag1 labeled with Eu^+ (Europium) (the HTRF energy donor) and anti-Tag2 labeled with XL665 (the HTRF energy acceptor), the interaction between PD-L1 and PD-1 can be detected. PD-L1 protein and PD-1 protein are labeled with Tag1 and Tag2, respectively, and Eu^+ and XL665 bind to PD-L1 and PD-1, respectively, through antibodies to form complexes. […] This specific signal is directly proportional to the degree of PD1/PD-L1 interaction.
Experimental materials: kit: PD-1/PD-L1 binding assay kits purchased from CISBIO; and 96-well plate: purchased from CISBIO.
Test instrument: Perkin Elmer, model: EnVision.
Test compounds: the compounds in formula (I).
Experimental procedure: PD-1/PD-L1 binding assay kits were used. […] The plates were sealed by using microplate sealers, centrifuging was performed at 1000 rpm for 1 min, and incubation was performed at room temperature for 15 min. The Anti-Tag-Eu^3+ and Anti-tag-XL665 which were diluted with Buffer were then mixed in equal volumes, then 10 µL of the mixed solution was added to each well, the sealed plates were centrifuged at 1000 rpm for 1 min, and incubation was performed at room temperature for 2 h. […] IC50 of the compounds was calculated by using Graphpad.

Broadly, the IC50 is the concentration that inhibits the measured activity by half. Read a high IC50 as weaker potency.

A value given as a limit tells only on which side of the number the result lay.

T1 sequence (Q9NZQ7 19-238 limits assumed): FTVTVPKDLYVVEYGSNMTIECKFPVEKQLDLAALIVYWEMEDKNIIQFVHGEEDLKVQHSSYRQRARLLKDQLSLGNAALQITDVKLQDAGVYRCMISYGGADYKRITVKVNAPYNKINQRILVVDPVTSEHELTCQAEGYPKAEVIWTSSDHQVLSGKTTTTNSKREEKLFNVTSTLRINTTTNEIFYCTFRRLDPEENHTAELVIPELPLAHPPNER

As to `Cc1c(-c2ccc3c(n2)CCN(CC(=O)O)C3)cccc1-c1ccccc1F` [I-B-2, 2-(2-(2'-Fluoro-2-methyl-[1,1'-biphenyl]-3-yl)-7,8-dihydro-1,6-naphthyridin-6(5H)-yl)acetic acid], the IC50 is 19 nM and the “inhibitory activity of PD-1/PD-L1 protein-protein interaction compared with BMS-202” value (“inhibitory activity … compared with BMS-202” for short) is on record as “superior to that of the compound BMS-202”.

With `O=C(O)CN1CCc2nc(OCc3cccc(-c4ccccc4F)c3)ccc2C1` [I-D-30, 2-(2-((2'-fluoro-[1,1'-biphenyl]-3-yl)methoxy)-7,8-dihydro-1,6-naphthyridin-6(5H)-yl)acetic acid], the 50% inhibitory concentration (IC50) stood at 13.4 nM and the “inhibitory activity … compared with BMS-202” value is recorded as “superior to that of the compound BMS-202”.

Turning to `Cc1c(-c2ccc3c(c2)CN(C(C)C(=O)O)C3=O)cccc1-c1ccccc1F` (centres unmarked) [I-A-6, 2-(5-(2'-Fluoro-2-methyl-[1,1'-biphenyl]-3-yl)-1-oxoisoindolin-2-yl)propanoic acid], the IC50 is above 1000 nM.

For the compound `OCCN1CCc2nc(OCc3cccc(-c4ccccc4Cl)c3Cl)ccc2C1` [I-D-20, 2-(2-((2,2'-dichloro-[1,1'-biphenyl]-3-yl)methoxy)-7,8-dihydro-1,6-naphthyridin-6(5H)-yl)ethan-1-ol], the IC50 is 70 to 1000 nM.

On to `Cc1c(-c2ccc3c(c2)CN(CCC(=O)O)C3=O)cccc1-c1ccccc1F` [I-A-5, 3-(5-(2'-Fluoro-2-methyl-[1,1'-biphenyl]-3-yl)-1-oxoisoindolin-2-yl)propanoic acid], for which the concentration for half-maximal inhibition (IC50) was above 1000 nM.

Consider `Cc1c(COc2ccc3c(n2)CCN(CCO)C3)cccc1-c1ccccc1F` [I-D-14, 2-(2-((2'-fluoro-2-methyl-[1,1'-biphenyl]-3-yl)methoxy)-7,8-dihydro-1,6-naphthyridin-6(5H)-yl)ethan-1-ol], for which the IC50 is 15.8 nM and the “inhibitory activity … compared with BMS-202” value is “superior to that of the compound BMS-202”.

On to `OCCN1CCc2nc(OCc3cccc(-c4ccccc4)c3F)ccc2C1` [I-D-25, 2-(2-((2-fluoro-[1,1'-biphenyl]-3-yl)methoxy)-7,8-dihydro-1,6-naphthyridin-6(5H)-yl)ethan-1-ol], for which the IC50 was 70 to 1000 nM.

`Cc1c(-c2ccc3c(c2)CN(CC(N)=O)C3=O)cccc1-c1ccccc1F` [I-A-8, 2-(5-(2'-Fluoro-2-methyl-[1,1'-biphenyl]-3-yl)-1-oxoisoindolin-2-yl)acetamide] came in with an IC50 of 70 to 1000 nM.

`Cc1c(-c2ccc3c(c2)CN(CCO)C3)cccc1-c1ccccc1F` [I-A-9, 2-(5-(2'-Fluoro-2-methyl-[1,1'-biphenyl]-3-yl)isoindolin-2-yl)ethan-1-ol]: the IC50 was determined as 11 nM and the “inhibitory activity … compared with BMS-202” value is “superior to that of the compound BMS-202”.

`Cc1c(COc2ccc3c(n2)CCN(CCO)C3)cccc1-c1ccccc1` [I-D-17, 2-(2-((2-methyl-[1,1'-biphenyl]-3-yl)methoxy)-7,8-dihydro-1,6-naphthyridin-6(5H)-yl)ethan-1-ol] returned an IC50 of 70 to 1000 nM.

`Cc1ccccc1-c1cccc(COc2ccc3c(n2)CCN(CCO)C3)c1F` [I-D-23, 2-(2-((2-fluoro-2'-methyl-[1,1'-biphenyl]-3-yl)methoxy)-7,8-dihydro-1,6-naphthyridin-6(5H)-yl)ethan-1-ol]: the IC50 fell in the range of 70 to 1000 nM.

For `Cc1c(-c2ccc3c(n2)CCN(CCO)C3)cccc1-c1ccccc1F` [I-B-3, 2-(2-(2'-Fluoro-2-methyl-[1,1'-biphenyl]-3-yl)-7,8-dihydro-1,6-naphthyridin-6(5H)-yl)ethan-1-ol], the IC50 was 70 to 1000 nM.

Consider `Cc1ccccc1-c1cccc(COc2ccc3c(n2)CCN(CCO)C3)c1C` [I-D-15, 2-(2-((2,2'-dimethyl-[1,1'-biphenyl]-3-yl)methoxy)-7,8-dihydro-1,6-naphthyridin-6(5H)-yl)ethan-1-ol], for which the IC50 is 70 to 1000 nM.

With `Cc1c(-c2ccc3c(c2)CN(CCO)C3=O)cccc1-c1ccccc1F` [I-A-7, 5-(2'-Fluoro-2-methyl-[1,1'-biphenyl]-3-yl)-2-(2-hydroxyethyl)isoindo 1-1-one], the concentration for half-maximal inhibition (IC50) lay within 70 to 1000 nM.

Take `Cc1ccccc1-c1cccc(COc2ccc3c(n2)CCN(CCO)C3)c1Cl` [I-D-19, 2-(2-((2-chloro-2'-methyl-[1,1'-biphenyl]-3-yl)methoxy)-7,8-dihydro-1,6-naphthyridin-6(5H)-yl)ethan-1-ol]: the IC50 stood at 20.1 nM and the “inhibitory activity … compared with BMS-202” value is reported as “superior to that of the compound BMS-202”.

For the compound `Cc1c(COc2ccc3c(n2)CCN(CCO)C3)cccc1-c1ccccc1Cl` [I-D-16, 2-(2-((2'-chloro-2-methyl-[1,1'-biphenyl]-3-yl)methoxy)-7,8-dihydro-1,6-naphthyridin-6(5H)-yl)ethan-1-ol], the IC50 is 70 to 1000 nM.

For `OCCN1CCc2nc(OCc3cccc(-c4ccccc4F)c3F)ccc2C1` [I-D-22, 2-(2-((2,2'-difluoro-[1,1'-biphenyl]-3-yl)methoxy)-7,8-dihydro-1,6-naphthyridin-6(5H)-yl)ethan-1-ol], the half-inhibitory concentration (IC50) is 10.5 nM and the “inhibitory activity … compared with BMS-202” value is on record as “superior to that of the compound BMS-202”.

With `O=CCN1CCc2nc(OCc3cccc(-c4ccccc4F)c3Cl)ccc2C1` [I-D-28, 2-(2-((2-chloro-2'-fluoro-[1,1'-biphenyl]-3-yl)methoxy)-7,8-dihydro-1,6-naphthyridin-6(5H)-yl)acetaldehyde], the IC50 came out at 24.2 nM and the “inhibitory activity … compared with BMS-202” value is reported as “superior to that of the compound BMS-202”.

Take `Cc1c(COc2ccc3c(n2)N(C)CN(CC(=O)O)C3)cccc1-c1cccc(OCCCN2CC[C@@H](O)C2)c1C` [I-E-4, (R)-2-(7-((3'-(3-(3-hydroxypyrrolidin-1-yl)propoxy)-2,2'-dimethyl-[1,1'-biphenyl]-3-yl)methoxy)-1-methyl-1,4-dihydropyrido[2,3-d]pyrimidin-3(2H)-yl)acetic acid]: the IC50 is 58.5 nM and the “inhibitory activity … compared with BMS-202” value is recorded as “superior to that of the compound BMS-202”.

Take `OCCN1CCc2nc(OCc3cccc(-c4ccccc4)c3Cl)ccc2C1` [I-D-21, 2-(2-((2-chloro-[1,1'-biphenyl]-3-yl)methoxy)-7,8-dihydro-1,6-naphthyridin-6(5H)-yl)ethan-1-ol]: the IC50 turned out to be 31.1 nM and the “inhibitory activity … compared with BMS-202” value is “superior to that of the compound BMS-202”.

`Cc1c(-c2ccc3c(c2)CN(CC(=O)O)C3=O)cccc1-c1ccccc1F` [I-A-4, 2-(5-(2'-Fluoro-2-methyl-[1,1'-biphenyl]-3-yl)-1-oxoisoindolin-2-yl)acetic acid] showed an IC50 above 1000 nM.

Take `Cc1c(COc2ccc3c(n2)CCN(CC(=O)O)C3)cccc1-c1ccccc1F` [I-D-13, 2-(2-((2'-fluoro-2-methyl-[1,1'-biphenyl]-3-yl)methoxy)-7,8-dihydro-1,6-naphthyridin-6(5H)-yl)acetic acid]: the IC50 came to 23 nM and the “inhibitory activity … compared with BMS-202” value is listed as “superior to that of the compound BMS-202”.

These data come from EP4556465A1, “NOVEL BICYCLIC PD-L1 INHIBITORS, PREPARATION METHODS THEREFOR AND MEDICINAL USES THEREOF” (priority 2022, dated 2024).
